# Reference: patent publication US20250255850A1, “PHARMACEUTICAL COMPOSITIONS FOR TREATING NEUROLOGICAL CONDITIONS” (YISSUM RESEARCH DEVELOPMENT COMPANY OF THE HEBREW …, priority 2021, published 2025)
# Molecular target: T1, nNOS (Homo sapiens, UniProt P29475)
# T1 construct: SH-SY5Y cells grown in six-well culture plates were lysed in 50 mM Tris-HCl buffer (pH 7.4); endogenous in cells; host or cells: SH-SY5Y (human neuroblastoma, ATCC)
# Test: NADPH-diaphorase activity assay in SH-SY5Y cell lysates
# Type: cell-based
# Settings: 7-NI 100 μM 24 hours or 20 nM nNOS siRNA 24 hours
# Experimental: Human NB SH-SY5Y cells were obtained from the American Type Culture Collection (ATCC) and maintained in Dulbecco's modified Eagle's medium (DMEM) and Ham's F-12 (1:1) supplemented with 10% fetal bovine serum, 2 mM L-glutamine, and 100 U/ml penicillin-G/100 […] streptomycin in a humidified atmosphere (37° C., 5% CO2). Cells were plated onto 25 cm^2 and 75 cm^2 plates at a density of 7.0×10^5 and 2.1×10^6 cells/cm^2 respectively for Western blotting (WB) and 1×10^5 for immunofluorescence. The SH-SY5Y cells were treated with 100 μM 7-nitroindazole (7-NI) for 24 hours (Fujibayashi et al., 2015). This concentration was confirmed in a dose-response experiment (FIG. 14A) using an MTT viability assay. […]
# The NADPH-diaphorase activity assay was used to determine the NOS activity based on the NADPH-dependent reduction of nitro-blue tetrazolium salt (NBT) to visible formazan (Amaroli and Chessa, 2012; Seckler et al., 2020). […] After a 15 min incubation period at 37° C., the production of formazan was measured spectrophotometrically at 585 nm. The data were expressed as absorbance units and normalized for the protein content of each sample. Protein concentration was measured by the bicinchoninic acid (BCA) protein assay using BSA as a standard (Ortiz-Ortiz et al., 2009). Released NO was measured using a Griess Assay Kit (Beyotime, Shanghai, China) according to the manufacturer's instructions.
# T1 sequence (P29475 whole entry): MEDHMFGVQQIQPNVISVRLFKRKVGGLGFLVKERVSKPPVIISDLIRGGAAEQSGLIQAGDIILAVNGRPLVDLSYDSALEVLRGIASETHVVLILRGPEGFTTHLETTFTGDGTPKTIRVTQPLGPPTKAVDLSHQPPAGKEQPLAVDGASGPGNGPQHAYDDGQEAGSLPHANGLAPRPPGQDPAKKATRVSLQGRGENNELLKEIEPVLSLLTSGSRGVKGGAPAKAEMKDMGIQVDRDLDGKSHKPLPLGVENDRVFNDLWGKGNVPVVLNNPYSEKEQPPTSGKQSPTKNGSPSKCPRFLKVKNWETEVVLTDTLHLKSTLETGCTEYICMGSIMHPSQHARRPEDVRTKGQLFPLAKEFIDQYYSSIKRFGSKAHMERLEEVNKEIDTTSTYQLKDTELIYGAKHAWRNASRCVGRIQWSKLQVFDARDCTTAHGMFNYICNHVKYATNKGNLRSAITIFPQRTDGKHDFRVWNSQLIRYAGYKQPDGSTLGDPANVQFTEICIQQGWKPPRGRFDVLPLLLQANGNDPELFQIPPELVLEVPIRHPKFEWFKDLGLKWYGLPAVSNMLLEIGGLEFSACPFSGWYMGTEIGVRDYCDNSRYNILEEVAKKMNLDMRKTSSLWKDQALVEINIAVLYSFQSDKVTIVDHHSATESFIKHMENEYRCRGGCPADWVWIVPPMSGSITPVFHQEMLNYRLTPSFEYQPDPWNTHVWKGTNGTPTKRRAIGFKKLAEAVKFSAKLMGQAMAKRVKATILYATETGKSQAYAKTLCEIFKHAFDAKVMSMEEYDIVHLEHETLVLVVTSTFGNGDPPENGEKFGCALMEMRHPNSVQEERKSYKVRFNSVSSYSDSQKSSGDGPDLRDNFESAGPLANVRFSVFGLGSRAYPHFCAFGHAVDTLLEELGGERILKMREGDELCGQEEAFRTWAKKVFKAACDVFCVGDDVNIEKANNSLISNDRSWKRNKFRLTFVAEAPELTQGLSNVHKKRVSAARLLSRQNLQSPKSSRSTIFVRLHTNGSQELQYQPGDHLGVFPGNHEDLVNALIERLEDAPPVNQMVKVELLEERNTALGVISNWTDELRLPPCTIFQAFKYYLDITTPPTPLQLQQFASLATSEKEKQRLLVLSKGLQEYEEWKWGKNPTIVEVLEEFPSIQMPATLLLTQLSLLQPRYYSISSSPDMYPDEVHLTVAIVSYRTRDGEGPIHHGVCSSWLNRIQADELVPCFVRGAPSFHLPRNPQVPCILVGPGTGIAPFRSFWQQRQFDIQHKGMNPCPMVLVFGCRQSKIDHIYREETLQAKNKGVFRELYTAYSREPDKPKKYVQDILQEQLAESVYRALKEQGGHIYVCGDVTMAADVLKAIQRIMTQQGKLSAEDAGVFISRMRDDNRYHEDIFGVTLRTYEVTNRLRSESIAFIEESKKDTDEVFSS
compound,measurement,value
"O=[N+]([O-])c1cccc2cn[nH]c12 [7-NI, 7-nitroindazole]",NADPH diaphorase activity,significantly inhibited
